Results reported in US10933051B2, “Carbapenem compounds and compositions for the treatment of bacterial infections” (FOB Synthesis, Inc., priority 2017, dated 2021).

How the values were obtained:
Type in all cases: cell-based
Parameters in all cases: unit not given here
A. baumannii FSAb-029 [1] = assay: Antimicrobial Susceptibility Test (CLSI), Test Example 2; conditions: Table 4; strain produces OXA-2, IMP-1
Experimental: (§1) Antimicrobial Susceptibility Test was performed by the CLSI (Clinical and Laboratory Standards Institute) methods. The agar dilution method for determining antimicrobial susceptibility was carried out using Mueller Hinton-II agar and the amount of inoculation was 10^4CFU/spot. Broth dilution tests were performed using the Mueller Hinton-II broth. All assays were run with the indicated control strains, available from the ATCC (American Type Culture Collection, Rockville, Md.).

A. baumannii FSAb-039 [2] = assay: as above; conditions: Table 4; strain produces OXA-51
Experimental: as §1

A. baumannii FSAb-056 [3] = assay: as above; conditions: Table 4; strain produces OXA-23, OXA-51
Experimental: as §1

A. baumannii FSAb-065 = assay: as above; conditions: Table 4; strain produces OXA-2, VIM-2
Experimental: as §1

E. coli FSEco-054 [4] = assay: as above; conditions: Table 4; strain produces ESBL
Experimental: as §1

[5] = test system: K. pneumoniae ATCC BAA-1904; assay: as above; conditions: Table 4; strain produces KPC-3
Experimental: as §1

P. aeruginosa FSPa-121 = assay: as above; conditions: Table 4; strain produces OXA-17
Experimental: as §1

A. baumannii FSAb-029 [6] = assay: Antimicrobial Susceptibility Test (CLSI), Test Example 3; conditions: Table 6; strain produces OXA-2, IMP-1
Experimental: as §1

A. baumannii FSAb-039 [7] = assay: as above; conditions: Table 6; strain produces OXA-51
Experimental: as §1

A. baumannii FSAb-056 [8] = assay: as above; conditions: Table 6; strain produces OXA-23, 51
Experimental: as §1

A. baumannii FSAb-141 = assay: as above; conditions: Table 6; strain produces PER-1, OXA-23, 51, 66
Experimental: as §1

E. coli FSEco-054 [9] = assay: as above; conditions: Table 6; strain produces ESBL
Experimental: as §1

K. pneumoniae BAA-1904 = assay: as above; conditions: Table 6; strain produces KPC-3
Experimental: as §1

P. aeruginosa FSPa-102 = assay: as above; conditions: Table 6; strain produces IMP-1
Experimental: as §1

P. aeruginosa FSPa-141 = assay: as above; conditions: Table 6; strain produces VIM-2
Experimental: as §1

## C[C@@H](O)[C@H]1C(=O)N2C(C(=O)O)=C(CN3CCC(C(=O)NCc4ccc(O)c(O)c4Cl)C3)[C@H](C)[C@H]12 (stereo partly shown) [Compound 37]
A. baumannii FSAb-029 [1]
  antimicrobial susceptibility, A. baumannii FSAb-029: 8
A. baumannii FSAb-039 [2]
  antimicrobial susceptibility, A. baumannii FSAb-039: 32
A. baumannii FSAb-056 [3]
  antimicrobial susceptibility, A. baumannii FSAb-056: 16
A. baumannii FSAb-065
  antimicrobial susceptibility, A. baumannii FSAb-065: 4
E. coli FSEco-054 [4]
  antimicrobial susceptibility, E. coil FSEco-054: 8
[5]
  antimicrobial susceptibility, K. pneumoniae BAA-1904: >32
P. aeruginosa FSPa-121
  antimicrobial susceptibility, P. aeruginosa FSPa-121: 8

## C[C@@H](O)[C@H]1C(=O)N2C(C(=O)O)=C(CN3CC(NC(=O)c4ccc(O)c(O)c4Cl)C3)[C@H](C)[C@H]12 [Compound 38]
A. baumannii FSAb-029 [1]
  antimicrobial susceptibility, A. baumannii FSAb-029: 0.5
A. baumannii FSAb-039 [2]
  antimicrobial susceptibility, A. baumannii FSAb-039: 4
A. baumannii FSAb-056 [3]
  antimicrobial susceptibility, A. baumannii FSAb-056: 4
A. baumannii FSAb-065
  antimicrobial susceptibility, A. baumannii FSAb-065: 0.25
E. coli FSEco-054 [4]
  antimicrobial susceptibility, E. coil FSEco-054: 2
[5]
  antimicrobial susceptibility, K. pneumoniae BAA-1904: 16
P. aeruginosa FSPa-121
  antimicrobial susceptibility, P. aeruginosa FSPa-121: 4

## C[C@@H](O)[C@H]1C(=O)N2C(C(=O)O)=C(CN3CC(C(=O)NCc4ccc(O)c(O)c4Cl)C3)[C@H](C)[C@H]12 [Compound 39]
A. baumannii FSAb-029 [1]
  antimicrobial susceptibility, A. baumannii FSAb-029: 4
A. baumannii FSAb-039 [2]
  antimicrobial susceptibility, A. baumannii FSAb-039: 8
A. baumannii FSAb-056 [3]
  antimicrobial susceptibility, A. baumannii FSAb-056: 8
A. baumannii FSAb-065
  antimicrobial susceptibility, A. baumannii FSAb-065: 1
E. coli FSEco-054 [4]
  antimicrobial susceptibility, E. coil FSEco-054: 2
[5]
  antimicrobial susceptibility, K. pneumoniae BAA-1904: 8
P. aeruginosa FSPa-121
  antimicrobial susceptibility, P. aeruginosa FSPa-121: 16

## C[C@@H](O)[C@H]1C(=O)N2C(C(=O)[O-])=C(C[N+](C)(C)CCNC(=O)c3ccc(O)c(O)c3Cl)[C@H](C)[C@H]12 [Compound 40]
A. baumannii FSAb-029 [1]
  antimicrobial susceptibility, A. baumannii FSAb-029: 8
A. baumannii FSAb-039 [2]
  antimicrobial susceptibility, A. baumannii FSAb-039: 16
A. baumannii FSAb-056 [3]
  antimicrobial susceptibility, A. baumannii FSAb-056: 8
A. baumannii FSAb-065
  antimicrobial susceptibility, A. baumannii FSAb-065: 4
E. coli FSEco-054 [4]
  antimicrobial susceptibility, E. coil FSEco-054: 4
[5]
  antimicrobial susceptibility, K. pneumoniae BAA-1904: 16
P. aeruginosa FSPa-121
  antimicrobial susceptibility, P. aeruginosa FSPa-121: 4

## C[C@@H](O)[C@H]1C(=O)N2C(C(=O)O)=C(CN(CCNC(=O)c3ccc(O)c(O)c3F)CCNC(=O)c3ccc(O)c(O)c3F)[C@H](C)[C@H]12 [Compound 101]
A. baumannii FSAb-029 [6]
  antimicrobial susceptibility, Ab FSAb-029: 0.25
A. baumannii FSAb-039 [7]
  antimicrobial susceptibility, Ab FSAb-039: 2
A. baumannii FSAb-056 [8]
  antimicrobial susceptibility, Ab FSAb-056: 4
A. baumannii FSAb-141
  antimicrobial susceptibility, Ab FSAb-141: 0.5
E. coli FSEco-054 [9]
  antimicrobial susceptibility, Ec FSEco-054: 2
K. pneumoniae BAA-1904
  antimicrobial susceptibility, Kp BAA-1904: >32
P. aeruginosa FSPa-102
  antimicrobial susceptibility, Pa FSPa-102: 1
P. aeruginosa FSPa-141
  antimicrobial susceptibility, Pa FSPa-141: 1

## C[C@@H](O)[C@H]1C(=O)N2C(C(=O)O)=C(CN(CCCNC(=O)c3ccc(O)c(O)c3F)CCNC(=O)c3ccc(O)c(O)c3F)[C@H](C)[C@H]12 [Compound 102]
A. baumannii FSAb-029 [6]
  antimicrobial susceptibility, Ab FSAb-029: 0.25
A. baumannii FSAb-039 [7]
  antimicrobial susceptibility, Ab FSAb-039: 1
A. baumannii FSAb-056 [8]
  antimicrobial susceptibility, Ab FSAb-056: 4
A. baumannii FSAb-141
  antimicrobial susceptibility, Ab FSAb-141: 0.5
E. coli FSEco-054 [9]
  antimicrobial susceptibility, Ec FSEco-054: 1
K. pneumoniae BAA-1904
  antimicrobial susceptibility, Kp BAA-1904: >32
P. aeruginosa FSPa-102
  antimicrobial susceptibility, Pa FSPa-102: 1
P. aeruginosa FSPa-141
  antimicrobial susceptibility, Pa FSPa-141: 2

## C[C@@H](O)[C@H]1C(=O)N2C(C(=O)O)=C(CN(CCCNC(=O)c3ccc(O)c(O)c3F)CCCNC(=O)c3ccc(O)c(O)c3F)[C@H](C)[C@H]12 [Compound 103]
A. baumannii FSAb-029 [6]
  antimicrobial susceptibility, Ab FSAb-029: 0.25
A. baumannii FSAb-039 [7]
  antimicrobial susceptibility, Ab FSAb-039: 1
A. baumannii FSAb-056 [8]
  antimicrobial susceptibility, Ab FSAb-056: 4
A. baumannii FSAb-141
  antimicrobial susceptibility, Ab FSAb-141: 1
E. coli FSEco-054 [9]
  antimicrobial susceptibility, Ec FSEco-054: 1
K. pneumoniae BAA-1904
  antimicrobial susceptibility, Kp BAA-1904: >32
P. aeruginosa FSPa-102
  antimicrobial susceptibility, Pa FSPa-102: 2
P. aeruginosa FSPa-141
  antimicrobial susceptibility, Pa FSPa-141: 8
